For this assay, the system named is MEK. In words: Cellular Assay for Measuring MEK Inhibition (inhibition of ERK phosphorylation in C26 cells, Western blot). The class given is cell-based, murine. As to conditions: for IC50: inhibition of ERK phosphorylation in murine colon 26 (C26) carcinoma cells, determined graphically from dose response curve; for % Inhibition @ 0.1 μM / % Inhibition @ 1 μM / % Inhibition @ 10 μM: ERK phosphorylation in C26 cells. The procedure:
The evaluation of the compounds as MEK inhibitors was performed in an assay that measures their ability to inhibit phosphorylation of MAP kinase […]) in murine colon 26 (C26) carcinoma cells. Since ERK1 and ERK2 represent the only known substrates for MEK, measurement of inhibition of ERK phosphorylation in cells provides direct readout of cellular MEK inhibition by the compounds of the invention. Briefly, the assay involves treating exponentially growing C26 cells with varying concentrations of the test compound (or vehicle control) for […] at 37° C. Cells are then rinsed free of compound/vehicle and lysed in a solution containing 70 mM NaCl, 50 mM glycerol phosphate, 10 mM HEPES, pH 7.4, 1% Triton X-100, 1 mM Na3VO4, 100 μM PMSF, 10 μM leupeptin and 10 μM pepstatin. Supernatants are then subjected to gel electrophoresis and Western blotting using a primary antibody recognizing dually phosphorylated ERK1 and ERK2. To evaluate total MAPK levels, blots were subsequently ‘stripped’ and re-probed with a 1:1 mixture of polyclonal antibodies recognizing unphosphorylated ERK1 and ERK2.

Structures can show the parent of a compound that is named as a salt.

Consider 25 molecules from patent publication US6960614B2, “Oxygenated esters of 4-lodo phenylamino benzhydroxamic acids” (Warner-Lambert Company, priority 2000, dated 2005).

Consider `O=C(NOCCC(O)CO)c1cc(Br)c(F)c(F)c1Nc1ccc(I)cc1Cl` (stereo not shown) [Example 94, 5-Bromo-2-(2-chloro-4-iodo-phenylamino)-N-(3,4-dihydroxy-butoxy)-3,4-difluoro-benzamide], for which half-maximal inhibition (IC50) was put at 280 nM.

Regarding `Cc1cc(I)ccc1Nc1c(C(=O)NOCCC(O)CO)ccc(F)c1F` (stereo not shown) [Example 95, N-(3,4-Dihydroxy-butoxy)-3,4-difluoro-2-(4-iodo-2-methyl-phenylamino)-benzamide], the midpoint of inhibition, the IC50, lay at 190 nM.

For `CCC(O)CONC(=O)c1cc(Br)c(F)c(F)c1Nc1ccc(I)cc1Cl` (stereo not shown) [Example 107, 5-Bromo-2-(2-chloro-4-iodo-phenylamino)-3,4-difluoro-N-(2-hydroxy-butoxy)-benzamide], the midpoint of inhibition, the IC50, lay at 76 nM.

With `O=C(NOCCC(O)CO)c1ccc(F)c(F)c1Nc1ccc(I)cc1Cl` (stereo not shown) [Example 92, 2-(2-Chloro-4-iodo-phenylamino)-N-(3,4-dihydroxy-butoxy)-3,4-difluoro-benzamide], the “% Inhibition @ 0.1 μM” value is recorded as 51.8% and the “% Inhibition @ 1 μM” value is given as 92.4%.

`CNCCONC(=O)c1ccc(F)c(F)c1Nc1ccc(I)cc1F` [Example 79, 3,4-Difluoro-2-(2-fluoro-4-iodo-phenylamino)-N-(2-methylamino-ethoxy)-benzamide, hydrochloride salt]: half-maximal inhibition (IC50) was put at 20 nM.

Take `O=C(NOCCCO)c1cc(F)c(F)c(F)c1Nc1ccc(I)cc1Cl` [Example 101, 2-(2-Chloro-4-iodo-phenylamino)-3,4,5-trifluoro-N-(3-hydroxy-propoxy)-benzamide]: the IC50 (usually the point on the concentration scale where inhibition reaches its midpoint) came out at 225 nM.

As to `O=C(NOCC1CC1CO)c1cc(Cl)c(F)c(F)c1Nc1ccc(F)cc1F` (stereo not shown) [Example 214, 5-Chloro-2-(2,4-difluoro-phenylamino)-3,4-difluoro-N-(2-hydroxymethyl-cyclopropylmethoxy)-benzamide], the “% Inhibition @ 1 μM” value was determined as 15.4% and the “% Inhibition @ 10 μM” value was 38.2%.

In the case of `Cc1cc(I)ccc1Nc1c(C(=O)NOCC(C)(C)O)cc(Br)c(F)c1F` [Example 172, 5-Bromo-3,4-difluoro-N-(2-hydroxy-2-methyl-propoxy)-2-(4-iodo-2-methyl-phenylamino)-benzamide], the “% Inhibition @ 0.1 μM” value is reported as 41.9% and the “% Inhibition @ 1 μM” value is 92.9%.

Take `CC(C)(O)CONC(=O)c1ccc(F)c(F)c1Nc1ccc(F)cc1F` [Example 181, 2-(2,4-Difluoro-phenylamino)-3,4-difluoro-N-(2-hydroxy-2-methyl-propoxy)-benzamide]: the “% Inhibition @ 1 μM” value was 0% and the “% Inhibition @ 10 μM” value is recorded as 65.1%.

As for `Cc1cc(I)ccc1Nc1c(C(=O)NOC(C)CO)cc(Br)c(F)c1F` (stereo not shown) [Example 124, 5-Bromo-3,4-difluoro-N-(2-hydroxy-1-methyl-ethoxy)-2-(4-iodo-2-methyl-phenylamino)-benzamide], the “% Inhibition @ 0.1 μM” value is 78% and the “% Inhibition @ 1 μM” value was 96.9%.

For `Cc1cc(I)ccc1Nc1c(C(=O)NOCC(C)(C)CO)cc(F)c(F)c1F` [Example 199, 3,4,5-Trifluoro-N-(3-hydroxy-2,2-dimethyl-propoxy)-2-(4-iodo-2-methyl-phenylamino)-benzamide], the IC50 amounted to 100 nM.

In turn, `O=C(NOCC(O)CO)c1cc(F)c(F)c(F)c1Nc1ccc(I)cc1Cl` (stereo not shown) [Example 87, 2-(2-Chloro-4-iodo-phenylamino)-N-(2,3-dihydroxy-propoxy)-3,4,5-trifluoro-benzamide] showed an IC50 of 25 nM.

The molecule `O=C(NOCC(O)CN1CCOCC1)c1cc(F)c(F)c(F)c1Nc1ccc(I)cc1Cl` (stereo not shown) [Example 145, 2-(2-Chloro-4-iodo-phenylamino)-3,4,5-trifluoro-N-(2-hydroxy-3-morpholin-4-yl-propoxy)-benzamide] returned an IC50 of 100 nM.

Regarding `Cc1cc(I)ccc1Nc1c(C(=O)NOCC(O)CN2CCOCC2)cc(Cl)c(F)c1F` (stereo not shown) [Example 150, 5-Chloro-3,4-difluoro-N-(2-hydroxy-3-morpholin-4-yl-propoxy)-2-(4-iodo-2-methyl-phenylamino)-benzamide], the “% Inhibition @ 0.1 μM” value was found to be 49% and the “% Inhibition @ 1 μM” value is recorded as 99.9%.

With `CC(C)(CO)CONC(=O)c1cc(Cl)c(F)c(F)c1Nc1ccc(F)cc1F` [Example 203, 5-Chloro-2-(2,4-difluoro-phenylamino)-3,4-difluoro-N-(3-hydroxy-2,2-dimethyl-propoxy)-benzamide], the “% Inhibition @ 1 μM” value came to 0% and the “% Inhibition @ 10 μM” value is 37.4%.

Take `CC(O)CONC(=O)c1ccc(F)c(F)c1Nc1ccc(I)cc1F` (stereo not shown) [Example 164, 3,4-Difluoro-2-(2-fluoro-4-iodo-phenylamino)-N-(2-hydroxy-propoxy)-benzamide]: the IC50 amounted to 3 nM.

For `O=C(NOCC1CC1CO)c1ccc(F)c(F)c1Nc1ccc(F)cc1F` (stereo not shown) [Example 215, 2-(2,4-Difluoro-phenylamino)-3,4-difluoro-N-(2-hydroxymethyl-cyclopropylmethoxy)-benzamide], the “% Inhibition @ 1 μM” value was determined as 11.7% and the “% Inhibition @ 10 μM” value turned out to be 84.8%.

For `CCC(O)CONC(=O)c1cc(Cl)c(F)c(F)c1Nc1ccc(I)cc1C` (stereo not shown) [Example 111, 5-Chloro-3,4-difluoro-N-(2-hydroxy-butoxy)-2-(4-iodo-2-methyl-phenylamino)-benzamide], the “% Inhibition @ 0.1 μM” value is recorded as 78% and the “% Inhibition @ 1 μM” value was 93.4%.

With `O=C(NOCC(O)CN1CCOCC1)c1cc(Cl)c(F)c(F)c1Nc1ccc(F)cc1F` (stereo not shown) [Example 154, 5-Chloro-2-(2,4-difluoro-phenylamino)-3,4-difluoro-N-(2-hydroxy-3-morpholin-4-yl-propoxy)-benzamide], the “% Inhibition @ 1 μM” value came to 8.9% and the “% Inhibition @ 10 μM” value worked out at 51%.

The molecule `CC(C)(O)CONC(=O)c1cc(Cl)c(F)c(F)c1Nc1ccc(I)cc1Cl` [Example 175, 5-Chloro-2-(2-chloro-4-iodo-phenylamino)-3,4-difluoro-N-(2-hydroxy-2-methyl-propoxy)-benzamide] yielded an IC50 of 180 nM.

For the molecule `O=C(NOCC(O)COc1ccccc1)c1cc(Br)c(F)c(F)c1Nc1ccc(I)cc1Cl` (stereo not shown) [Example 186, 5-Bromo-2-(2-chloro-4-iodo-phenylamino)-3,4-difluoro-N-(2-hydroxy-3-phenoxy-propoxy)-benzamide], the IC50 was determined as 34 nM.

Turning to `COCCONC(=O)c1cc(Cl)c(F)c(F)c1Nc1ccc(I)cc1F` [Example 142, 5-Chloro-3,4-difluoro-2-(2-fluoro-4-iodo-phenylamino)-N-(2-methoxy-ethoxy)-benzamide], the “% Inhibition @ 0.1 μM” value turned out to be 31% and the “% Inhibition @ 1 μM” value stood at 91.4%.

On to `CC(CO)ONC(=O)c1cc(Br)c(F)c(F)c1Nc1ccc(I)cc1Cl` (stereo not shown) [Example 123, 5-Bromo-2-(2-chloro-4-iodo-phenylamino)-3,4-difluoro-N-(2-hydroxy-1-methyl-ethoxy)-benzamide], for which half-maximal inhibition (IC50) required 21 nM.

Take `CC(O)CONC(=O)c1ccc(F)c(F)c1Nc1ccc(F)cc1F` (stereo not shown) [Example 167, 2-(2,4-Difluoro-phenylamino)-3,4-difluoro-N-(2-hydroxy-propoxy)-benzamide]: the “% Inhibition @ 1 μM” value came to 80.5% and the “% Inhibition @ 10 μM” value is listed as 89.2%.

The molecule `Cc1cc(I)ccc1Nc1c(C(=O)NOCC(O)COc2ccccc2)ccc(F)c1F` (stereo not shown) [Example 188, 3,4-Difluoro-N-(2-hydroxy-3-phenoxy-propoxy)-2-(4-iodo-2-methyl-phenylamino)-benzamide] had an IC50 of 44 nM.
